Results reported in ChEMBL document CHEMBL1141700, “Discovery of the catechol structural moiety as a Stat3 SH2 domain inhibitor by virtual screening” (Bioorg Med Chem Lett, 2008).
The source made the active and inactive calls. The calls are words filed in the database; no cut-off is given here.

Experiments:
[1] = target: T1, Signal transducer and activator of transcription 3 (Homo sapiens, UniProt P40763); experiment: Inhibition of Stat3 binding to DNA in human U266 whole cell lysate at 100 ug/ml by ELISA; type: cell-free; details: U-266
[2] = target: T1, Signal transducer and activator of transcription 3; experiment: Inhibition of Stat3 phosphorylation in human U266 whole cell lysate by Western blotting; type: cell-based; details: U-266
[3] = target: T1, Signal transducer and activator of transcription 3; experiment: Inhibition of Stat3 binding to DNA in human U266 whole cell lysate by ELISA; type: cell-free, U-266
[4] = target: Signal transducer and activator of transcription 3 (Mus musculus) (UniProt P42227); experiment: Displacement of pTyr705 from flag-tagged mouse Stat3 SH2 domain expressed in HEK293 cells up to 200 uM by fluorescence polarization
Sequence of Signal transducer and activator of transcription 3 (Mus musculus) (P42227 whole entry, the tested form may be a part): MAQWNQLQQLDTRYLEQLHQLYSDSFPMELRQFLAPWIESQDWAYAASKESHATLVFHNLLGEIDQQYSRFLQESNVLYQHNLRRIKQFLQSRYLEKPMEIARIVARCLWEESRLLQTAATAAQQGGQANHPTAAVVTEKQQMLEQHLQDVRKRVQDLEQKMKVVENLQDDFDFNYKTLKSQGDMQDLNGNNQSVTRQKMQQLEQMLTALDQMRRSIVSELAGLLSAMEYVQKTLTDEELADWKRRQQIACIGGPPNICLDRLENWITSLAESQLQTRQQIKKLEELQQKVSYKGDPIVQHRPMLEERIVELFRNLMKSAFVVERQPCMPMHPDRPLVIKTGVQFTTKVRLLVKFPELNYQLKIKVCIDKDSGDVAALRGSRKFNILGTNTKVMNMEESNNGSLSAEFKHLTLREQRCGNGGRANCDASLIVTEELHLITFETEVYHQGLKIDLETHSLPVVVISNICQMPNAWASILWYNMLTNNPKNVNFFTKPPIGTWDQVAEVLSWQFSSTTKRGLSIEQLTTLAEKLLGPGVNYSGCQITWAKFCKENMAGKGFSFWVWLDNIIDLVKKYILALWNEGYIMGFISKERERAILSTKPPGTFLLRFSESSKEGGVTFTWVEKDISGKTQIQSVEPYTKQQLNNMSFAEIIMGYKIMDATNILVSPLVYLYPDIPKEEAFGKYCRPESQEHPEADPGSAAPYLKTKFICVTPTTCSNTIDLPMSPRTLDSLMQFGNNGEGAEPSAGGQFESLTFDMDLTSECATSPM

T1 sequence (P40763 whole entry): as the sequence (P42227 whole entry, the tested form may be a part) above, with D760E counted along it

Row | inhibition [1] | Activity [2] | IC50 [3] | Activity [4] | SMILES
1 | 8% |  |  |  | O=C(O)c1ccccc1/N=C\c1ccc(O)c(O)c1
2 | 56% |  |  |  | Oc1cccc(-c2nc3ccccc3s2)c1O
3 | 40% | Active | 357 µM | inactive | O=C(Cc1ccc2c(c1)OCO2)NCCc1ccc(O)c(O)c1
4 | 51% |  |  |  | Oc1ccc(CC/N=C/c2cccc(O)c2O)cc1O
5 |  |  | 106 µM |  | Cc1oc(C)c2c(=O)cc(-c3ccc(O)c(O)c3)cc(O)c12
6 | 57% |  |  |  | O=C(c1ccc(O)c(O)c1)c1cnc(NCc2ccc(F)cc2)s1
7 | 50% |  |  |  | Oc1ccc(CC/N=C/c2c(O)ccc3ccccc23)cc1O
